Series [1] deals with MDA-MB-231 cells. Briefly: MTT cytotoxicity (cell viability) assay. It counts as cell-based, human. The note with it: for cytotoxic effect: at a concentration of 100 µM. As to the method:
(§1) Cell proliferation assay on MDA-MB-231 cells was determined with colorimetric MTT as we described. Briefly, cells were seeded in a 96 wells plate at 2,000 cells/well in DMEM media supplemented with 10% FBS for 24h at 37°C. Cells were then incubated with and without the B2RAs at the indicated concentrations for the time shown. At the end of treatment period, MTT (0.25 mg/ml) was added to the cells and incubated for 1h30 at 37°C. Thereafter, the cell medium was removed, the formazan product solubilized in acidified isopropanol (100 µl of 1N HCl/anhydrous isopropanol 1:25) and the absorbance determined at 570 nm with an ELISA microplate reader (Spectra Max Plus, Molecular Devices, Sunnyvale, CA). For assessing the cytotoxicity of B2RAs and chemotherapeutic agents (carmustine, doxorubicin, carboplatin, temozolomide and paclitaxel), cells were grown to confluency in multi-well plates and exposed to starving media (DMEM without FBS) for 24h before beginning of the antagonist treatment. Cells were then incubated with MTT and treated exactly as described above. Cell viability was expressed as a percentage of optical density (OD) values obtained upon treatment relative to control.

Series [2] relates to MDA-MB-231 cells. Briefly: Cellular incorporation of B2RAs by LC-MS/MS. As to conditions: 2.5 µM antagonist, 37°C.
Procedure: Permeability of MDA-MB-231 cells to B2RAs was evaluated by either confocal microscopy or LC-MS/MS analyses. […] Mass spectrometry. […] At the end of treatments, cells underwent an acid wash to facilitate the release of surface bound ligands. Cell contents were released from hypotonic lysis using a 40:60 mixture of 15 mM Tris-HCl pH 7.4 / methanol. Cell lysates were next sonicated and subjected to protein precipitation following addition of 0.1% v/v formic acid. Precipitated proteins were removed by centrifugation and supernatants were concentrated using a Speedvac centrifugal evaporator. The sample was subjected to quantification using LC-MS/MS on a triple quadrupole mass spectrometer (Agilent G6410B). A calibration curve made from nine different concentrations of the reference compounds dissolved in suitable HPLC mobile phase solvents, was used to estimate antagonist intracellular content in each sample. The limit of quantification was 75 fmol (1 nM/75 µl).
The test system of series [3] is MDA-MB-231 cells. The experiment in a line: Anchorage-dependent clonogenic assay. Format: cell-based, human. The note with it: for colony formation (antagonist effect): 1 to 100 µM (FR173657 up to 25 µM), 10-14 days. As for the experimental part:
MDA-MB-231 cells were plated at 200 cells/well in a six-well dish in 2 ml DMEM medium containing 10% FBS. […] After 10 to 14 days, colonies were fixed and stained with 0.5% methylene blue in 50% ethanol. Excess of staining solution was removed carefully with tap water and the plates were dried overnight. Colony counting and densitometric analyses (to measure total colony numbers and surface areas) were performed using the Image Pro Plus 5.1 software.

Series [4] relates to MDA-MB-231 cells. Briefly: MTT proliferation assay. Format: cell-based, human. As to conditions: B2R shRNA knockdown MDA-MB-231 cells vs scrambled shRNA. As to the method: as §1
For series [5], the system named is MDA-MB-231 cells. The experiment in a line: Drug-drug synergy experiments (MTT, combination index). Format: cell-based, human. As to conditions: IC25 ratios, 72h, CalcuSyn. As for the experimental part: Interactions (synergy, additive, antagonistic activities) between CP-B2RAs (FR173657 and NG68) and chemotherapeutic drugs (doxorubicin and paclitaxel) were evaluated using MTT standard assays. Twenty-four hours after seeding, cells were treated with CP-B2RAs, the other testing drug, or in combination. For combination testing, CP-B2RAs or the other testing drugs were added to plate in triplicate wells in ratios of IC25 (IC25A: IC25B), and cells are incubated in drug-treated medium for 72h and cell viability determined by MTT. Synergy was determined by calculating combination index (CI) value with the formula CI = (CA,X / ICx,A) + (CB,X / ICx,B), where CA,X and CB,X are concentrations of drug A and drug B used in combination to achieve x% drug effect. ICx,A and ICx,B are concentrations for single agents to achieve the same effect. A CI of less than, equal to, and more than 1 indicates synergy, additivity, and antagonism, respectively.

Series [6] concerns MDA-MB-231 cells. The experiment in a line: Western blot of cell cycle, apoptosis and p38 proteins. It counts as cell-based, human. As for the experimental part: For western blot analysis, appropriate amount of cell lysates or membrane and nuclear fractions (25–50 µg protein) were denatured, resolved on 9–12% SDS–PAGE and electrotransferred onto PVDF membranes. Blots were blocked using 5% nonfat dry milk and probed using appropriate primary antibodies in blocking buffer overnight at 4°C.
(A western blot detects proteins with antibodies after separation by electrophoresis.)

Series [7] in a line: Distribution coefficient n-octanol/PBS pH 7.4, shake flask.
Procedure: Equal volumes of octanol and PBS (137 mM NaCl, 2.7 mM KCl, 10 mM Na2HPO4, 2 mM KH2PO4, pH 7.4), were mixed and allowed to equilibrate for 24h. The layers were then separated and stored at 4°C. At testing, the compounds (200 µM) was added to 200 µl of aqueous phase and mixed with an equal volume of octanol by vortexing for 2 min. The octanol/buffer solution was centrifuged for 5 min at 1000 x g. After separation into aqueous and octanol phases, compound content of the aqueous and octanol phases was quantified by RP-HPLC (Agilent1100 series). […] All octanol/buffer distribution studies were performed in duplicate. The octanol/buffer coefficient was calculated as the ratio of octanol layer to the buffer layer.
Series [8] deals with MDA-MB-231 cells. Briefly: PI staining cell cycle analysis by flow cytometry. Format: cell-based, human. The note with it: 24 h treatment; HOE 140 up to 100 μM. As to the method: MDA-MB-231 were plated at 500,000/plate in 10 cm plates containing medium (10% FBS/DMEM), and allowed to adhere for about 18 h. Thereafter, cells were serum-starved and treated with and without the B2RAs at the indicated concentrations for 24 h. At the end of treatments, cells were harvested, rinsed and fixed with ice cold ethanol 95%, for 2 h at 4°C. Fixed cells were rehydrated with 800 µl PBS for 30 min, and then washed again with PBS to remove all traces of ethanol. Cells were treated with RNase for 30 min prior to staining. PI was added to cell suspension at a concentration of 15 µg/ml and incubated overnight at 4°C. PI staining was assessed by flow cytometry using a FACSCanto II flow cytometer (BD Biosciences).
In general terms: In flow cytometry, cells or beads pass a laser one at a time.

For series [9], the system named is MDA-MB-231 cells. The experiment in a line: Annexin V/PI apoptosis and beta-galactosidase senescence assays. Format: cell-based, human. As to the method: The effect of B2RAs on cellular senescence was assessed using the Senescence β-Galactosidase Staining Kit (Cell Signaling). MDA-MB-231 cells were plated at 500 000 cells/well in 6-well plates, and serum-starved right before the beginning of treatments. Cells were treated with and without the B2RAs at the indicated concentrations for 72 h. At the end of treatment, surviving cells were fixed with 2% formaldehyde, 0.2% glutaraldehyde for 15 min at room temperature. Fixed cells were then washed and stained with fresh senescence-associated β-galactosidase stain solution (sodium phosphate buffer, pH 6.0, containing 1mg of X-gal (5-bromo-4-chloro-3-indolyl-β-d-galactopyranoside)/ml 40 mM citric acid, 5 mM potassium ferrocyanide, 5 mM potassium ferricyanide, 150 mM NaCl, 2 mM MgCl2) at 37°C. Staining was detected by light microscopy. As a positive control for senescence, we serum starved porcine cerebral microvascular endothelial cells (pCMVEC) (kindly provided by S Chemtob) for 48 h.
MDA-MB-231 and COS-1 cells were plated at 500,000/well in 6-well plates containing medium (10% FBS/DMEM), and allowed to adhere for about 18 h. On the next day, cells were serum-starved and then treated with and without the B2RAs at the indicated concentrations for 24 h. To assess induction of apoptosis due to treatment, we used the Annexin-V-FLUOS Staining kit (Roche) according to manufacturer’s specifications. Briefly, at the end of treatments, cells were harvested, rinsed and incubated in 100 µl of Annexin-V-FLUOS labeling solution (containing 2 µl of Annexin-V-Fluos reagent and 1 µl of PI (15 µg/ml)) for 15 min at room temperature. Cells were analyzed on a FACSCanto II flow cytometer (BD Biosciences). Early stage apoptosis was measured using annexin V-Fluos (RocheMolecular Biochemicals) in conjunction with PI (Sigma) to distinguish among early apoptosis and late apoptosis/necrosis. Bar diagram showing the distribution of early, late/necrotic cell populations.

Where [10] appears, read: Homo sapiens, MDA-MB-231, MTT assay after 72h drug exposure, means ± s.e.m., n = 6 to 8, read-out: IC50 values (cytocidal activity).
Where [11] appears, read: 24h treatment, whole-cell lysates.

Like-named read-outs stand apart in the source and are kept apart here. Square brackets hold non-standard residues; d marks the D form. Ends that are not written are not given here. Peptide text beside a SMILES is read from it. Oic = O=C(O)[C@@H]1C[C@@H]2CCCC[C@@H]2N1; Hyp = O=C(O)[C@@H]1C[C@@H](O)CN1; dTic = O=C(O)[C@H]1Cc2ccccc2CN1; 2Thi = N[C@@H](Cc1cccs1)C(=O)O Bounds are passed on as bounds.

The term IC50 denotes the concentration that gives 50% inhibition. As a reminder, the logD is the decadic logarithm of the distribution of all forms, ionised or not, between an organic phase and buffer at a given pH. The low end stands for lower lipophilicity, the high end for higher lipophilicity.

Turning to `COc1cccc2c1C(=O)c1c(O)c3c(c(O)c1C2=O)C[C@@](O)(C(=O)CO)C[C@@H]3O[C@H]1C[C@H](N)[C@H](O)[C@H](C)O1` [Adriamycin (doxorubicin), doxorubicin], in the series with MDA-MB-231 cells [1] (setting [10]), the IC50 is 2 ± 1 µM.
On the same count and under the same terms, then `O=NN(CCCl)C(=O)NCCCl` [BCNU (carmustine), carmustine], with 62 ± 1 µM.
Turning to `N.N.O=C([O-])C1(C(=O)[O-])CCC1.[Pt+2]` [Carboplatin], the IC50 in the series with MDA-MB-231 cells [1] (MTT assay after 72h drug exposure, means ± s.e.m., n = 6 to 8, read-out: IC50 values (cytocidal activity)) is > 100 µM. For the same compound, the cytotoxic effect entry with MDA-MB-231 cells [1] is recorded as “did not show significant cytotoxic effect”.
Turning to `C[C@H](CCC(=O)N[C@H](CCCNC(=N)N)C(=O)N[C@@H](CCCNC(=N)N)C(=O)N1CCC[C@H]1C(=O)N1C[C@H](O)C[C@H]1C(=O)NCC(=O)N[C@@H](Cc1cccs1)C(=O)N[C@@H](CO)C(=O)N1Cc2ccccc2C[C@@H]1C(=O)N1[C@H](C(=O)N[C@@H](CCCNC(=N)N)C(=O)O)C[C@@H]2CCCC[C@@H]21)[C@H]1CC[C@H]2[C@@H]3[C@H](O)C[C@@H]4C[C@H](O)CC[C@]4(C)[C@H]3C[C@H](O)[C@]12C` [Cholic-HOE 140 (NG134)], the Cellular incorporation in the series with MDA-MB-231 cells [2] (15 min) was 13 pmol/10^6 cells; in the series with MDA-MB-231 cells [2] (4 h) it was 22 pmol/10^6 cells. Also, in the series with MDA-MB-231 cells [3], the “colony formation (antagonist effect)” value is “concentration-responsive clonal repression”. The half-inhibitory concentration (IC50) in the series on MDA-MB-231 cells [1] (72 h) was > 100 µM.
For `N=C(N)NCCC[C@H](NC(=O)[C@@H]1C[C@@H]2CCCC[C@@H]2N1C(=O)[C@H]1Cc2ccccc2CN1C(=O)[C@H](CO)NC(=O)[C@H](Cc1cccs1)NC(=O)CNC(=O)[C@@H]1C[C@@H](O)CN1C(=O)[C@@H]1CCCN1C(=O)[C@H](CCCNC(=N)N)NC(=O)[C@@H](CCCNC(=N)N)NC(=O)CNC(=O)CNC(=O)CNC(=O)[C@@H](CCCNC(=N)N)NC(=O)[C@@H](CCCNC(=N)N)NC(=O)[C@@H](CCCNC(=N)N)NC(=O)[C@@H](CCC(N)=O)NC(=O)[C@@H](CCCNC(=N)N)NC(=O)[C@@H](CCCNC(=N)N)NC(=O)[C@@H](CCCCN)NC(=O)[C@@H](CCCCN)NC(=O)[C@@H](CCCNC(=N)N)NC(=O)CN)C(=O)O` [D-Tat-HOE 140 (NG68)] (H-G[dR][dK][dK][dR][dR][dQ][dR][dR][dR]GGG[dR]RP[Hyp]G[2Thi]S[dTic][Oic]R-OH; N-terminus and C-terminus assumed), the “cytostatic activity after B2R downregulation” value in the series on MDA-MB-231 cells [4] is “significantly attenuated”. Besides, the results for the “combination index (CI)” value in the series with MDA-MB-231 cells [5] (combination with doxorubicin) and in the series with MDA-MB-231 cells [5] (combination with paclitaxel) were “below 1” and ~1, respectively. The Cellular incorporation in the series with MDA-MB-231 cells [2] (15 min) is 5 pmol/10^6 cells; with MDA-MB-231 cells [2] (4 h), 14 pmol/10^6 cells. Further, the “colony formation (antagonist effect)” value in the series with MDA-MB-231 cells [3] is “concentration-responsive clonal repression”. For the same compound, the “expression of BAD and p27Kip1” value in the series with MDA-MB-231 cells [6] (setting [11]) is on record as “increased expression”. Moreover, the “levels of MAPK and cyclin A” value in the series with MDA-MB-231 cells [6] (setting [11]) is “decreased the levels of MAPK and cyclin A”. Besides, in the series on MDA-MB-231 cells [6] (over time), the “phosphorylation of p38” value is on record as “significantly increased the phosphorylation”. The logD in [7] (pH 7.4, Distribution coefficient log D, n-octanol/PBS (pH 7.4), shake flask, RP-HPLC quantification) is -3.02. Besides, in the series with MDA-MB-231 cells [8], the cell cycle distribution entry is listed as “tend to induce G0/G1 cell cycle arrest”. Moreover, the “induction of apoptosis / senescence” value with MDA-MB-231 cells [9] (Annexin V and active caspase-3 positivity 24h, β-galactosidase 72h) is “underwent apoptosis, but not senescence”.
Consider `NC(N)=NCCC[C@@H](N)C(=O)N[C@@H](CCCN=C(N)N)C(=O)N1CCC[C@H]1C(=O)N1C[C@H](O)C[C@H]1C(=O)NCC(=O)N[C@@H](Cc1cccs1)C(=O)N[C@@H](CO)C(=O)N1Cc2ccccc2C[C@@H]1C(=O)N1[C@H](C(=O)N[C@@H](CCCN=C(N)N)C(=O)O)C[C@@H]2CCCC[C@@H]21` [HOE 140], for which the Cellular incorporation in the series on MDA-MB-231 cells [2] (15 min), in the series on MDA-MB-231 cells [2] (4 h) and in the series with MDA-MB-231 cells [2] (24 h) was 0 pmol/10^6 cells throughout. Moreover, the pH-dependent lipophilicity (logD) in series [7] (pH 7.4) is -3.06. For the same compound, in the series with MDA-MB-231 cells [1] (72 h), the 50% inhibitory concentration (IC50) is > 100 µM.
As to `CC(=O)O[C@H]1C(=O)[C@@]2(C)[C@H]([C@H](OC(=O)c3ccccc3)[C@]3(O)C[C@H](OC(=O)[C@H](O)[C@@H](NC(=O)c4ccccc4)c4ccccc4)C(C)=C1C3(C)C)[C@]1(OC(C)=O)CO[C@@H]1C[C@@H]2O` [Paclitaxel (Taxol), Paclitaxel], the IC50 in the series on MDA-MB-231 cells [1] (setting [10]) stood at 10 ± 1 µM.
Turning to `C[S+]([O-])c1ccc(-c2nc(-c3ccncc3)c(-c3ccc(F)cc3)[nH]2)cc1` (stereo not drawn) [SB203580], the “clonogenicity, inhibitor alone” value in the series with MDA-MB-231 cells [3] (10 µM, 14 days) is recorded as “had no effect”.
On to `Cn1nnc2c(C(N)=O)ncn2c1=O` [Temozolomide (Temodar), Temozolomide], for which, in the series with MDA-MB-231 cells [1] (setting [10]), the IC50 is > 100 µM. Further, the cytotoxic effect entry with MDA-MB-231 cells [1] was “did not show significant cytotoxic effect”.
Regarding “DTat: vector alone; modified HIV-1 Tat peptide sequence GRKKRRQRRR in D-configuration (G[dR][dK][dK][dR][dR][dQ][dR][dR][dR])”, the “intrinsic activity of vector alone” value in the series on MDA-MB-231 cells [9] (up to 100 μM, in any of the above assays) was “did not exhibit intrinsic activity”.

(Values after publication PMC5839409, “Targeting intracellular B2 receptors using novel cell-penetrating antagonists to arrest growth and induce apoptosis in human triple-negative breast cancer” (Oncotarget, 2018).)
